What was measured:
[1] = Transport of geniposide across the HNEC monolayer; assay type: in vitro ADME, human; conditions: human
Procedure: (§1) When HNECs reached approximately 80–90% confluence, the cells were detached with trypsin and were seeded at a density of 2×10^5 cells·cm^−2 on PET inserts. The culture medium was BEGM:DMEM/F12 (1∶1) in both sides at 37 °C in an atmosphere of 5% CO2 and 95% relative humidity, which was first changed after 24 h of seeding and then every 2 days.
(§2) The transport experiments were carried out when transepithelial electrical resistance (TEER) value was higher than 500 Ω·cm^2. The transport studies were performed by initially incubating the monolayers in Hanks balanced salt solution (HBSS) for 30 min at 37 °C. To measure apical (A) → basolateral (B) transport, 0.5 mL of drug solution and 1.5 mL of HBSS were added in the A and B sides, respectively. Basolateral (B) → apical (A) transport was evaluated by adding 1.5 mL of drug solution in B side and 0.5 mL of HBSS in A side.
(§3) Geniposide transport was studied at three concentrations: 25, 50 and 100 µg·mL^−1. The effect of borneol was studied at 27.8, 55.6 and 111.2 µg·mL^−1 concentrations in the presence of 50 µg·mL^−1 geniposide. The effect of muscone was studied at 4.17, 8.34 and 16.68 µg·mL^−1 concentrations in the presence of 50 µg·mL^−1 geniposide. Finally, the effects of both borneol and muscone were studied at the concentrations mentioned above in the presence of 50 µg·mL^−1 geniposide.
(§4) Each measurement was evaluated in triplicate. Cells were incubated in a 37 °C shaking incubator. Samples of 200 µL were taken from the apical side (to study B → A transport) and samples of 600 µL were taken from the basal side (to study A → B transport) at 30, 60, 90, 120, 150, 180 min time intervals. The same volume of fresh preheated HBSS was added to keep the volume constant. Samples were centrifuged for 10 min at 12,000 r·min^−1 and the supernatant was analyzed for geniposide by HPLC.
(§5) An UV-HPLC method was used to quantify the geniposide concentrations in the transport studies. The chromatographic conditions consisted of a Purospher Star C18 column (4×200 mm, particle size 5 µm) plus guard column. Geniposide samples were analyzed with UV detection (λ = 238 nm) and the mobile phase was composed of acetonitrile and water (16∶84, v/v). The mobile phase was pumped at a flow rate of 1 mL·min^−1 and the injected volume was 20 µL. In these conditions, the retention time of geniposide was 8.5 min.
(§6) The apparent permeability coefficients (Papp) for geniposide were calculated according to the following equation (2): [drawing 2] where Papp is the permeability, dQ/dt is the apparent appearance rate of drug in the receiver side calculated using linear regression of amounts in the receiver chamber versus time, C is the drug concentration in the donor chamber and S is the surface area of the monolayer. The efflux ratio (ER) was calculated according to the following equation (3): [drawing 3]

HNEC monolayer = assay: Transport of geniposide across the HNEC monolayer; assay type: in vitro ADME, human; conditions: for B→A fluxes of geniposide / A→B fluxes of geniposide: P<0.05 vs control
Procedure: as §1, §2, §3, §4, §5, §6

P-gp = P-gp substrate assessment from bidirectional transport in HNEC monolayer; assay type: in vitro ADME, human; conditions: HNEC model
Procedure: as §2, §6

HNECs = assay: Membrane fluidity of HNECs by FRAP; assay type: cell-based, human; conditions: Ge 50 µg·mL^−1 alone (control), 3 h
Procedure: The cells were seeded on cell plate at a density of 5×10^4 cells·cm^−2. The above formulation groups were added and the plates were incubated for 3 h at 37 °C in a 5% CO2 incubator. Cells were rinsed with HBSS and stained with NBD-C6-HPC at 2 µg·mL^−1 for 30 min.
A method of fluorescence recovery after photobleaching (FRAP) was used here. After the definition of line scanning position, length and photobleaching position, the monolayer was visualized by a Confocal Laser Scanning Microscope under the following conditions: excitation wavelength of 488 nm, emission wavelength of 530 nm, laser power for fluorescence bleaching of 100%, bleaching time of 0.7 s, scanning frequency of 1.65 s and the total scanning time of 100 s. The fluorescence intensity time-variation at the photobleaching position was recorded and image formation was obtained by confocal tomoscanning.
The membrane fluidity was represented by fluorescence recovery rate (R) which was calculated with the following equation (4): [drawing 4] where F0 is the instant fluorescence value after photobleaching, F1 is the fluorescence value before photobleaching and F2 is the fluorescence recovery value after photobleaching.

[2] = rats, at 3 h; cited from earlier work
[3] = cited from earlier work
[4] = Ge 50 µg·mL^−1 +Bo 27.8 µg·mL^−1
[5] = Ge 50 µg·mL^−1 +Bo 27.8 µg·mL^−1 Mu 4.17 µg·mL^−1
[6] = Ge 50 µg·mL^−1 +Bo 55.6 µg·mL^−1
[7] = Ge 50 µg·mL^−1 +Bo 55.6 µg·mL^−1 Mu 8.34 µg·mL^−1
[8] = Ge 50 µg·mL^−1 +Bo 111.2 µg·mL^−1
[9] = Ge 50 µg·mL^−1 +Bo 111.2 µg·mL^−1 Mu 16.68 µg·mL^−1
[10] = Ge 50 µg·mL^−1 +Mu 4.17 µg·mL^−1
[11] = Ge 50 µg·mL^−1 +Mu 8.34 µg·mL^−1
[12] = Ge 50 µg·mL^−1 +Mu 16.68 µg·mL^−1
[13] = geniposide 50 µg·mL^−1 alone (control)

## COC(=O)C1=CO[C@@H](O[C@@H]2O[C@H](CO)[C@@H](O)[C@H](O)[C@H]2O)[C@@H]2C(CO)=CC[C@H]12 [geniposide, Geniposide]
[1]; [4]
  Papp A→B at 180 min, 50 µg·mL^−1: 1.17 ± 0.12 ×10⁻⁶ cm/s
  Papp B→A at 180 min, 50 µg·mL^−1: 1.61 ± 0.034 ×10⁻⁶ cm/s
[1]; [5]
  Papp A→B at 180 min, 50 µg·mL^−1: 1.43 ± 0.083 ×10⁻⁶ cm/s
  Papp B→A at 180 min, 50 µg·mL^−1: 1.81 ± 0.024 ×10⁻⁶ cm/s
[1]; [6]
  Papp A→B at 180 min, 50 µg·mL^−1: 1.35 ± 0.086 ×10⁻⁶ cm/s
  Papp B→A at 180 min, 50 µg·mL^−1: 1.92 ± 0.111 ×10⁻⁶ cm/s
[1]; [7]
  Papp A→B at 180 min, 50 µg·mL^−1: 1.75 ± 0.043 ×10⁻⁶ cm/s
  Papp B→A at 180 min, 50 µg·mL^−1: 1.916 ± 0.019 ×10⁻⁶ cm/s
[1]; [8]
  Papp A→B at 180 min, 50 µg·mL^−1: 1.99 ± 0.293 ×10⁻⁶ cm/s
  Papp B→A at 180 min, 50 µg·mL^−1: 1.99 ± 0.126 ×10⁻⁶ cm/s
[1]; [9]
  Papp A→B at 180 min, 50 µg·mL^−1: 1.92 ± 0.049 ×10⁻⁶ cm/s
  Papp B→A at 180 min, 50 µg·mL^−1: 2.39 ± 0.052 ×10⁻⁶ cm/s
[1]; [10]
  Papp A→B at 180 min, 50 µg·mL^−1: 1.15 ± 0.068 ×10⁻⁶ cm/s
  Papp B→A at 180 min, 50 µg·mL^−1: 1.6 ± 0.021 ×10⁻⁶ cm/s
[1]; [11]
  Papp A→B at 180 min, 50 µg·mL^−1: 1.61 ± 0.054 ×10⁻⁶ cm/s
  Papp B→A at 180 min, 50 µg·mL^−1: 2.039 ± 0.018 ×10⁻⁶ cm/s
[1]; [12]
  Papp A→B at 180 min, 50 µg·mL^−1: 1.97 ± 0.108 ×10⁻⁶ cm/s
  Papp B→A at 180 min, 50 µg·mL^−1: 2.104 ± 0.02 ×10⁻⁶ cm/s
[1]; geniposide 25 µg·mL^−1
  Papp A→B at 180 min, 25 µg·mL^−1: 1.27 ± 0.314 ×10⁻⁶ cm/s
  Papp B→A at 180 min, 25 µg·mL^−1: 1.35 ± 0.113 ×10⁻⁶ cm/s
[1]; geniposide 25 µg·mL^−1, read-out: ER±SD(B→A/A→B)
  efflux ratio at 180 min, 25 µg·mL^−1: 1.1 ± 0.256
[1]; [13]
  Papp A→B at 180 min, 50 µg·mL^−1: 1.22 ± 0.015 ×10⁻⁶ cm/s
  Papp B→A at 180 min, 50 µg·mL^−1: 1.26 ± 0.084 ×10⁻⁶ cm/s
[1]; geniposide 50 µg·mL^−1 alone (control), read-out: ER±SD(B→A/A→B)
  efflux ratio at 180 min, 50 µg·mL^−1: 1.03 ± 0.076
[1]; geniposide 100 µg·mL^−1
  Papp A→B at 180 min, 100 µg·mL^−1: 1.25 ± 0.074 ×10⁻⁶ cm/s
  Papp B→A at 180 min, 100 µg·mL^−1: 1.19 ± 0.104 ×10⁻⁶ cm/s
[1]; geniposide 100 µg·mL^−1, read-out: ER±SD(B→A/A→B)
  efflux ratio at 180 min, 100 µg·mL^−1: 0.951 ± 0.132
[1]; HNEC monolayer, geniposide 25-100 µg·mL^−1, read-out: permeability coefficients
  Papp at 180 min: 1.22 to 1.27 ×10⁻⁶ cm/s
HNEC monolayer; [4]
  ER±SD(B→A/A→B): 1.388±0.162
HNEC monolayer; [5]
  ER±SD(B→A/A→B): 1.268±0.057
HNEC monolayer; [6]
  ER±SD(B→A/A→B): 1.429±0.149
HNEC monolayer; [7]
  ER±SD(B→A/A→B): 1.092±0.023
HNEC monolayer; [8]
  ER±SD(B→A/A→B): 1.012±0.106
HNEC monolayer; [9]
  ER±SD(B→A/A→B): 1.245±0.026
HNEC monolayer; [10]
  ER±SD(B→A/A→B): 1.400±0.071
HNEC monolayer; [11]
  ER±SD(B→A/A→B): 1.268±0.033
HNEC monolayer; [12]
  ER±SD(B→A/A→B): 1.072±0.069
HNEC monolayer; Ge 50 µg·mL^−1 combined with borneol (27.8, 55.6, 111.2 µg·mL^−1)
  B→A fluxes of geniposide: significantly increased
HNEC monolayer; Ge 50 µg·mL^−1 combined with muscone (4.17, 8.34, 16.68 µg·mL^−1)
  B→A fluxes of geniposide: significantly increased
HNEC monolayer; Ge 50 µg·mL^−1 in presence of borneol (111.2 µg·mL^−1)
  A→B fluxes of geniposide: significantly increased
HNEC monolayer; Ge 50 µg·mL^−1 in presence of muscone (8.34, 16.68 µg·mL^−1)
  A→B fluxes of geniposide: significantly increased
HNEC monolayer; Ge 50 µg·mL^−1 in the presence of borneol and muscone (Bo 27.8/Mu 4.17, Bo 55.6/Mu 8.34, Bo 111.2/Mu 16.68 µg·mL^−1), P<0.05
  permeability values in both directions: an increasing of permeability values in both directions was observed in a concentration-dependent manner
HNEC monolayer; geniposide 25, 50 and 100 µg·mL^−1
  (B→A)/(A→B) permeability ER: less than 2
P-gp
  P-gp substrate: not a P-gp substrate
HNECs
  Fluorescence recovery rate R (%)±SD: 33.08±1.74%
[2]
  absorption percentage in the intestinal tract: about 15.9%
[3]
  apparent partition coefficient between octanol and water: about 0.108
